As usually defined, the pEC50 is −log10 of the EC50, conventionally taken in molar units. The pIC50 is −log10 of the IC50, conventionally taken in molar units.

The results in this text go back to patent US20260364080A1, “PYRAZOLO-PYRIMIDINONE COMPOUNDS FOR USE IN METHODS OF INHIBITING WEE1 A KINASE” (Acrivon Therapeutics, Inc., priority 2023, published 2026).

pEC50, pIC50: −log10 of the molar value.

In assay [1] the test system is ACHN cells. In words: Cell Titer Glo viability assay, ACHN cells. It is filed as cell-based. As to conditions: Homo sapiens, 144 h, absolute EC50. In short, it runs like this: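 Cells grown in MEM with 10% FCS were seeded at 500 (A427), 400 (ACHN) or 250 (DAOY) per well and treated the next day with compound at 17 to 10 000 nM. Viability relative to untreated control was read at 144 h by CellTiter-Glo 2.0.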
In general terms: In ATP-based viability assays light output follows the ATP content of the culture.

Assay [2] deals with T1, Wee1A kinase (CDK1 Tyr15 phosphorylation in ACHN renal cell carcinoma cells) (Homo sapiens, UniProt P30291).
T1 construct: pCDK1 Tyr15 immunofluorescence read-out
T1 sequence (P30291 whole entry): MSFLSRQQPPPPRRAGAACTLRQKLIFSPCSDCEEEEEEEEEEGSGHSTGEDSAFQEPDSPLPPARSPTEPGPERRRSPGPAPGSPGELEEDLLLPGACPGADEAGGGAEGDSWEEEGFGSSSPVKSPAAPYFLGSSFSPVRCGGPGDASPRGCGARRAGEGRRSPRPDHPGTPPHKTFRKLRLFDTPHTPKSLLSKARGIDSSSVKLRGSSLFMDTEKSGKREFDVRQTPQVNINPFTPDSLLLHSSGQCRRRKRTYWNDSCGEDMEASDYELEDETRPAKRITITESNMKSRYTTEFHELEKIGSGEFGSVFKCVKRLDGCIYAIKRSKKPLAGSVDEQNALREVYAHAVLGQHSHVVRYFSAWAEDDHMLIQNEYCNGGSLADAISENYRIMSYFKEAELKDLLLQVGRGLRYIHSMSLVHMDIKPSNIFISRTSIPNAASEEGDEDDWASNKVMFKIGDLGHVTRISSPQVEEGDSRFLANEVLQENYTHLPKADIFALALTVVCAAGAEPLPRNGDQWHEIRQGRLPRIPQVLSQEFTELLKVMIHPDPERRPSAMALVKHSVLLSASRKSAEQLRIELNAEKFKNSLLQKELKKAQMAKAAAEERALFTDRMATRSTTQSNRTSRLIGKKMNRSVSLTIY
Nature of the assay: High-content imaging of pCdk1 Y15, Wee1A kinase target engagement in ACHN cells. In kind it is cell-based. The following applies: 4 h treatment, nuclear positivity for pCdk1 Y15 vs DMSO control, read-out: CDK1 Tyr15 Phosphorylation EC50. In short, it runs like this:
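EC50 values come from the per-well fraction of cells with nuclear pCdk1 Y15 staining, normalised to DMSO control, by automated immunofluorescence imaging. Cells were ACHN renal carcinoma, treated 4 h with compound at 7–5,000 nM or 0.3–200 nM.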

Assay [3] addresses T2, recombinant human Wee1A kinase (Homo sapiens, UniProt P30291).
T2 construct: full length Wee1 kinase was expressed by baculovirus in insect cells; purchased Invitrogen PV3817; host or cells: insect cells (baculovirus)
Nature of the assay: Wee1A kinase binding assay (LanthaScreen Eu time-resolved FRET). The following applies: 30 nM tracer 178, 5 nM Wee1A kinase, 2 nM Eu-labeled antibody; 60 minutes at room temperature; read-out: Wee1A kinase Binding IC50. The method in brief: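 Full-length, baculovirus-expressed GST-tagged Wee1A (5 nM) was mixed with 2 nM Eu-anti-GST antibody, 30 nM kinase tracer 178 and compound (1% DMSO). Buffer was 50 mM HEPES pH 7.5, 10 mM MgCl2, 1 mM EGTA, 0.01% Brij-35, incubated 60 min at room temperature. TR-FRET 665/615 nm emission ratios from duplicates were curve-fitted.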

For assay [4], the target named is T3, Myt1 kinase (recombinant PMYT-1) (Homo sapiens, UniProt Q99640).
T3 construct: full length PMYT-1 was expressed by baculovirus in insect cells; purchased Invitrogen A30984; host or cells: insect cells (baculovirus)
T3 sequence (Q99640 1-499): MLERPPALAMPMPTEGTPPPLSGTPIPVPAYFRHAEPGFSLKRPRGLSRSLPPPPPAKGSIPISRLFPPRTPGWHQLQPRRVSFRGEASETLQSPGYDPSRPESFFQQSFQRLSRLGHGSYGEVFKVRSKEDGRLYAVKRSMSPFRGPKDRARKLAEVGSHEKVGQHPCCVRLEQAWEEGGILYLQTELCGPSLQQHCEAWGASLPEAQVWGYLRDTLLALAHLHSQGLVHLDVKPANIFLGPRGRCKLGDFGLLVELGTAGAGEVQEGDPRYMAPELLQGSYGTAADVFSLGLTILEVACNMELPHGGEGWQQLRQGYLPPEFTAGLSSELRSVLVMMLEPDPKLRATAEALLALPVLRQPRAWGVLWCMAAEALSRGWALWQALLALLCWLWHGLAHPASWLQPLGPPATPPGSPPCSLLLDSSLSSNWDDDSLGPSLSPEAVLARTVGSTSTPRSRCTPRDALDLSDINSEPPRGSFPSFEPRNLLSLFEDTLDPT
Nature of the assay: Myt1 kinase binding assay (LanthaScreen Eu Kinase Binding Assay). The following applies: 3 nM tracer 178, 2.5 nM PMYT-1, 1 nM Eu-labeled antibody; read-out: Myt1 kinase Binding IC50. In short, it runs like this: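 Compound binding to Myt1 kinase was assessed using the LanthaScreen Eu Kinase Binding Assay. This europium-based binding format was applied to quantify how strongly each compound bound to the Myt1 enzyme, and the binding affinity was reported for each compound as an IC50 value.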
For orientation: In TR-FRET formats the signal depends on donor and acceptor labels being close together.

Assay [5] addresses T4, Myt1 kinase (CDK1 Thr14 phosphorylation in DAOY medulloblastoma cells) (Homo sapiens, UniProt Q99640).
T4 construct: pCDK1 Thr14 AlphaLISA read-out
T4 sequence (Q99640 1-499): T3 sequence (Q99640 1-499)
Nature of the assay: AlphaLISA assay, Myt1 kinase target engagement (phospho-CDK1 Thr14) in DAOY cells. As to conditions: 4 h treatment, read-out: CDK1 Thr14 Phosphorylation EC50. It is filed as cell-based. The protocol:
Each of an ACHN renal cell carcinoma cell line (ATCC) and a DAOY medulloblastoma cell line, and an A427 lung cancer line were cultured in Minimum Essential Medium Eagle supplemented with 10% fetal calf serum (Sigma), 1% Penicillin-Streptomycin and 10 mM HEPES buffer (HyClone). Cell cultures were kept in a humidified incubator at 37 °C and 5% CO2. Cells were routinely tested for Mycoplasma contamination.
For target engagement assessment of Myt1 kinase inhibition, quantification of Cdk1 phosphorylated on threonine 14 was detected using the AlphaLISA® SureFire® Ultra™ Human Phospho-CDK1 (Thr14) assay (Perkin Elmer). DAOY or ACHN cells were seeded into tissue culture treated 96-well plates (VWR) to a density of 10,000 or 20,000 cells per well respectively. 24 h post seeding cells were treated for 4 h with compounds at concentrations ranging from 7 to 5000 nM. Cells were washed with PBS and lysed in 50 μl AlphaLISA lysis buffer before freezing at −80 C. Ten ul of the lysate was transferred to 384 well plates and incubated with AlphaLISA donor and acceptor beads according to the manufacturer's instructions. Dose response curves and EC50 values were calculated and visualized using GraphPad Prism version 9. Target engagement for Myt1 kinase can also be measured using the same AlphaLISA assay in OVCAR3 cells, an ovarian cancer cell line. NIH:OVCAR-3 (OVCAR3) cells are cultured in RPMI-1640 medium supplemented with 0.01 mg/ml insulin, 20% FBS, 1% Penicillin-Streptomycin and 10 mM HEPES buffer. 14,000 cells per well are seeded into 96 well tissue culture plates in full medium. Twenty-four hours post seeding, cells are treated with compound for 4 hours at concentrations ranging from 0.017 nM to 1000 nM.
On the technique in general: Bead proximity is the source of the signal in Alpha formats.

T2 sequence (P30291 whole entry): as the sequence (P30291 whole entry) above

In the case of `C=CCn1c(=O)c2cnc(Nc3ccc4cccnc4c3)nc2n1-c1cccc(OC2CCNCC2)n1` [Compound 243, 2-allyl-1-[6-(4-piperidyloxy)-2-pyridyl]-6-(7-quinolylamino)-1,2-dihydro-3H-1,2,5,7-tetraazainden-3-one], the results for the pEC50 in assay [1], in assay [2] and in assay [5] were 6.30 to 7.00, above 7.00 and 6.00 to 6.30, respectively. Also, the pIC50 was above 8.00 in assay [3] and above 7.70 in assay [4].
Take `C=CCn1c(=O)c2cnc(Nc3ccc4nc(C)sc4c3)nc2n1-c1cccc(OC2CCN(C)CC2)n1` [Compound 260, 2-allyl-6-(2-methyl-1,3-benzothiazol-6-ylamino)-1-[6-(1-methyl-4-piperidyloxy)-2-pyridyl]-1,2-dihydro-3H-1,2,5,7-tetraazainden-3-one]: the pEC50 was at least 7.00 in assay [1], above 7.00 in assay [2] and 6.30 to 6.70 in assay [5]. Besides, the pIC50 in assay [3] is above 8.00; in assay [4], above 7.70.
The matching figures for `C=CCn1c(=O)c2cnc(Nc3ccc4c(cnn4C)c3)nc2n1-c1cccc(O[C@H]2CCN(C)C2)n1` [Compound 105, 1-{6-[(S)-1-methyl-3-pyrrolidinyloxy]-2-pyridyl}-2-allyl-6-(1-methyl-1H-indazol-5-ylamino)-1,2-dihydro-3H-1,2,5,7-tetraazainden-3-one]: at least 7.00, above 7.00, 6.00 to 6.30, above 8.00 and 7.00 to 7.70.
The matching figures for `C=CCn1c(=O)c2cnc(Nc3ccc(OCC(F)(F)F)cc3)nc2n1-c1ccnc(OC2CCN(C)CC2)n1` [Compound 253, 2-allyl-1-(2-((1-methylpiperidin-4-yl)oxy)pyrimidin-4-yl)-6-((4-(2,2,2-trifluoroethoxy)phenyl)amino)-1,2-dihydro-3H-pyrazolo[3,4-d]pyrimidin-3-one]: at least 7.00, above 7.00, below 6.00, above 8.00 and 7.00 to 7.70.
The matching figures for `C=CCn1c(=O)c2cnc(Nc3ccc4nn(C)cc4c3)nc2n1-c1cccc(OC2CCN(C)CC2)n1` [Compound 273, 2-allyl-6-((2-methyl-2H-indazol-5-yl)amino)-1-(6-((1-methylpiperidin-4-yl)oxy)pyridin-2-yl)-1,2-dihydro-3H-pyrazolo[3,4-d]pyrimidin-3-one]: at least 7.00, above 7.00, above 6.70, above 8.00 and above 7.70.
In the case of `C=CCn1c(=O)c2cnc(Nc3ccc(Cl)cc3)nc2n1-c1cccc(NC2CCN(C)CC2)n1` [Compound 138, 2-allyl-6-((4-chlorophenyl)amino)-1-(6-((1-methylpiperidin-4-yl)amino)pyridin-2-yl)-1,2-dihydro-3H-pyrazolo[3,4-d]pyrimidin-3-one], the pEC50 in assay [1] is at least 7.00; in assay [2], above 7.00; in assay [5], below 6.00. The values for the pIC50 in assay [3] and in assay [4] were above 8.00 and 6.30 to 7.00, respectively.
Regarding `C=CCn1c(=O)c2cnc(Nc3ccc(N4CCOCC4)c(C)c3)nc2n1-c1cccc(OC2CCN(C)CC2)n1` [Compound 270, 2-allyl-1-[6-(1-methyl-4-piperidyloxy)-2-pyridyl]-6-(4-morpholino-3-toluidino)-1,2-dihydro-3H-1,2,5,7-tetraazainden-3-one], the negative logarithm of the EC50 (pEC50) is at least 7.00 in assay [1], above 7.00 in assay [2] and above 6.70 in assay [5]. The pIC50 is above 8.00 in assay [3] and above 7.70 in assay [4].
The matching figures for `C=CCn1c(=O)c2cnc(Nc3ccc(C#N)c(C)c3)nc2n1-c1cccc(OC2CCNCC2)n1` [Compound 293, 5-{2-allyl-3-oxo-1-[6-(4-piperidyloxy)-2-pyridyl]-1,2-dihydro-3H-1,2,5,7-tetraazainden-6-ylamino}-2-toluonitrile]: 6.30 to 7.00, above 7.00, 6.30 to 6.70, above 8.00 and 7.00 to 7.70.
On the same counts, the results for `C=CCn1c(=O)c2cnc(Nc3ccc(OCC)cc3)nc2n1-c1cccc(OC2CCN(C)CC2)n1` [Compound 255, 2-allyl-6-((4-ethoxyphenyl)amino)-1-(6-((1-methylpiperidin-4-yl)oxy)pyridin-2-yl)-1,2-dihydro-3H-pyrazolo[3,4-d]pyrimidin-3-one] are at least 7.00, above 7.00, 6.30 to 6.70, above 8.00 and above 7.70.
On the same counts, the results for `C=CCn1c(=O)c2cnc(Nc3ccc4c(c3)ncn4C)nc2n1-c1cccc(OC2CCNCC2)n1` [Compound 319, 2-allyl-6-((1-methyl-1H-benzo[d]imidazol-5-yl)amino)-1-(6-(piperidin-4-yloxy)pyridin-2-yl)-1,2-dihydro-3H-pyrazolo[3,4-d]pyrimidin-3-one] are 6.00 to 6.30, 6.30 to 7.00, below 6.00, above 8.00 and 7.00 to 7.70.
With `C=CCn1c(=O)c2cnc(Nc3cnn(C(C)C)c3)nc2n1-c1cccc(OC2CCN(C)CC2)n1` [Compound 198, 2-allyl-6-(1-isopropyl-4-pyrazolylamino)-1-[6-(1-methyl-4-piperidyloxy)-2-pyridyl]-1,2-dihydro-3H-1,2,5,7-tetraazainden-3-one], the values for the pEC50 in assay [1], in assay [2] and in assay [5] were at least 7.00, above 7.00 and below 6.00, respectively. Moreover, the pIC50 in assay [3] was above 8.00; in assay [4] it was 6.30 to 7.00.
Regarding `C=CCn1c(=O)c2cnc(Nc3ccc(OCC4CC4)cc3)nc2n1-c1cccc(OC2CCN(C)CC2)n1` [Compound 258, 2-allyl-6-((4-(cyclopropylmethoxy)phenyl)amino)-1-(6-((1-methylpiperidin-4-yl)oxy)pyridin-2-yl)-1,2-dihydro-3H-pyrazolo[3,4-d]pyrimidin-3-one], the pEC50 was at least 7.00 in assay [1], above 7.00 in assay [2] and 6.30 to 6.70 in assay [5]. The pIC50 is above 8.00 in assay [3] and above 7.70 in assay [4].
